In patent US6211212A, “Pyrrolidine and thiazole derivatives with metallo-beta-lactamase inhibitory properties” (SmithKline Beecham p.l.c., priority 1997, dated 2001) one finds IC50 data, which are given here for one compound.

Usually IC50 stands for the concentration that gives 50% inhibition. Low values mean higher potency, high ones lower potency.

This assay deals with B.fragilis CfiA metallo-β-lactamase (Bacteroides fragilis, UniProt P25910). Kind of assay: I50 screen (nitrocefin reporter substrate). Conditions: 25 μM PIPES pH 7, 37° C., nitrocefin 91 μM, 5 minute preincubation, Zn2+ 100 μM. Type of assay: biochemical. As to the method:
The inhibitory activity of the compounds of the invention was measured in 25 μM PIPES pH 7 buffer at 10 concentrations (1000, 333, 111, 37, 12.3, 4.1, 1.4, 0.46, 0.15 and 0.05 μM) at 37° C. using nitrocefin (91 μM final concentration) as the reporter substrate. The assays were performed with a 5 minute preincubation of enzyme and inhibitor and were conducted in the presence of added zinc sulphate (Zn^2+ 100 μM, final concentration). The methodology is described in detail in the following references: Payne et al (1991), J. Antimicrob. Chemother., 28:255; Payne et al (1994), Antimicrob. Agents and Chemother., 38:767.

B.fragilis CfiA metallo-β-lactamase, sequence (P25910 19-249): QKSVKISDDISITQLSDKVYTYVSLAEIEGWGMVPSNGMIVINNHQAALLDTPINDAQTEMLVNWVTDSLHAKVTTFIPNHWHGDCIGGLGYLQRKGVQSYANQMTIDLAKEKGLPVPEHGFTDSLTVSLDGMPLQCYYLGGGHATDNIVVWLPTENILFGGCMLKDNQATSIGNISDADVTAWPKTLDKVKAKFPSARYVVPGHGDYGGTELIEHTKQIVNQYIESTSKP

Regarding `O=C(N[C@@H](C(=O)O)c1ccccc1)[C@H]1CCCC[C@H]1S` (mixture of isomers) [Example E3, N-[2-(R,S)-Mercapto-1-(R,S)-cyclohexancarbonyl]-D-phenylglycine], the IC50 was under 1000 nM.
